The values that follow come from PubChem BioAssay AID651762 (The Scripps Research Institute Molecular Screening Center, 2012).

SMILES strings stand for the structures. Calls of active or inactive are those of the source. No rule for the calls is given here.

The target in this assay is Mu-type opioid receptor (Homo sapiens) (UniProt P35372). The experiment in a line: activators of OPRM1-OPRD1 heterodimerization, late-stage follow-up, cell-based, luminescence, dose response, set 2 (AID 651762). The conditions noted are these: cell-based heterodimer formation, luminescence complementation.
Sequence of Mu-type opioid receptor (Homo sapiens) (P35372 whole entry, looked up): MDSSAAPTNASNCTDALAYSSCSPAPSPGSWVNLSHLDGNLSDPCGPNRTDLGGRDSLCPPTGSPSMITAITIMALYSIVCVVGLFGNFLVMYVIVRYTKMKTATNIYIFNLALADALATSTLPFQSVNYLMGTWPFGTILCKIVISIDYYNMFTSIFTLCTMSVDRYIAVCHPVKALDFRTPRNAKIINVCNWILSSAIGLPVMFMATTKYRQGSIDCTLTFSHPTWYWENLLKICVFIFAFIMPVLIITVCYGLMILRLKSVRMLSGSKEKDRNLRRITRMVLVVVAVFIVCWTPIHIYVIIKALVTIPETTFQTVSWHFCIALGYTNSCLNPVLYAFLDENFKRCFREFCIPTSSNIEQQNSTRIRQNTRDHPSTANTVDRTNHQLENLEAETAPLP
The term EC50 denotes the midpoint of the concentration-response curve. In the case of `O=C(O)C1CCCCC1C(=O)Nc1ccc(CN2CCCCC2)cc1` (stereo not drawn), the EC50 is > 50 µM (inactive).

Take `CCOC(=O)C1(CCc2ccccc2)CCN(Cc2ccc(C#CC(C)(C)O)cc2)CC1`: the EC50 was > 50 µM (inactive).

Turning to `CCOC(=O)C1(CCc2ccccc2)CCN(C(=O)Nc2ccc(C)cc2C)CC1`, the EC50 was > 50 µM (inactive).

On to `C=Cc1ccc(C(=O)N2CCC(CCCc3ccccc3)(C(=O)OCC)CC2)cc1`, for which the EC50 is > 50 µM (inactive). In the case of `CCOC(=O)C1(CCOC)CCN(Cc2ccc(N(C)c3ccccc3)cc2)CC1` it was > 50 µM (inactive); in that of `CCOC(=O)C1(CCc2ccccc2)CCCN(Cc2ccc(N3CCNC3=O)cc2)C1` (stereo not drawn), > 50 µM (inactive); in that of `CCOC(=O)C1(CC2CC2)CCN(C(=O)c2ccc(N3CCCCC3)cc2)CC1`, > 50 µM (inactive). As to `CCOC(=O)C1(CCc2ccccc2)CCN(Cc2ccncc2)CC1`, the EC50 is > 50 µM (inactive). In the case of `CCOC(=O)C1(CC2CC2)CCN(Cc2ccc(NC(C)=O)cc2)CC1` it was > 50 µM (inactive); in that of `CCOC(=O)C1CCN(C(=O)c2ccc(N(C)C)cc2)CC1`, > 50 µM (inactive). In the case of `CCOC(=O)C1(Cc2ccccc2C)CCCN(Cc2ccc(NC(C)=O)cc2)C1` (stereo not drawn) it was > 50 µM (inactive); in that of `CCOC(=O)C1(CCc2ccccc2)CCN(Cc2ccc(OC)cc2)CC1`, 0.206 µM; in that of `C=Cc1ccc(C(=O)N2CCC(CCc3ccccc3)(C(=O)OCC)CC2)cc1`, > 50 µM (inactive). Turning to `CCOC(=O)C1CCN(CCC(=O)Nc2ccc(C)cc2)CC1`, the EC50 was > 50 µM (inactive).

With `CCOC(=O)C1(Cc2ccc(OC)cc2)CCN(C(=O)c2ccc(N(C)C)cc2)CC1`, the EC50 was > 50 µM (inactive).

On to `CCOC(=O)C1(CCOC)CCN(Cc2ccc(NC(C)=O)cc2)CC1`, for which the EC50 is > 50 µM (inactive).

Turning to `CCOC(=O)C1(CCc2ccccc2)CCN(Cc2c(O)cccc2OC)CC1`, the EC50 is 0.605 µM. Take `CCOC(=O)C1CCN(Cc2ccc(N(C)C)cc2)CC1`: the EC50 was > 50 µM (inactive). Regarding `CCOC(=O)C1CCN(Cc2ccc(NC(C)=O)cc2)CC1`, the EC50 is > 50 µM (inactive).

Regarding `CCOC(=O)C1(CCOC)CCCN(Cc2ccc(NC(C)=O)cc2)C1` (stereo not drawn), the EC50 is > 50 µM (inactive). Then `CC(=O)Nc1ccc(CN2CCCC(CO)(CCc3ccccc3)C2)cc1` (stereo not drawn), with 5.16 µM; and `CCOC(=O)C1(Cc2ccccc2)CCCN(Cc2ccc(NC(C)=O)cc2)C1` (stereo not drawn), with > 50 µM (inactive); and `CCOC(=O)C1(Cc2ccccc2Cl)CCN(Cc2ccc(NC(C)=O)cc2)CC1`, with 0.394 µM. Then `CCOC(=O)C1(Cc2cccc(OC)c2)CCCN(Cc2ccc(NC(C)=O)cc2)C1` (stereo not drawn), with > 50 µM (inactive); and `CCOC(=O)C1(CCc2ccccc2)CCN(Cc2ccc(O)cc2)CC1`, with > 50 µM (inactive); and `CCOC(=O)C1CCCCN1Cc1ccc(NC(C)=O)cc1` (stereo not drawn), with > 50 µM (inactive).

As to `CCOC(=O)C1(CCOc2ccccc2)CCCN(Cc2ccc(NC(C)=O)cc2)C1` (stereo not drawn), the EC50 is > 50 µM (inactive). Then `CCOC(=O)C1(CCc2ccccc2)CCN(Cc2ccc(C(=O)OC)cc2)CC1`, with > 50 µM (inactive).
